“Also recorded” adds a separate entry of the source.
Test system: human BL0293 tumor cells (bladder cancer cells)
Experiment: Tumor growth of BL0293 patient-derived xenograft in NSG-Quad mice engrafted with human CD34+ hematopoietic stem cells
Format: in vivo, mouse
Conditions: NSG-Quad mice with human CD34+ HSC and BL0293 xenografts; intravenous 10 mg/kg on day 0, then 5 mg/kg on days 5, 10 and 15; versus vehicle; tumors 60-100 mm^3 at grouping
Description: NSG-Quad mice were irradiated with 50 cGy whole body radiation. NSG-SGM3 mice were irradiated with 50 cGy whole body radiation and NSG mice were irradiated with 100 cGy whole body radiation as controls. Each mouse received about 100,000 human CD34^+ hematopoietic stem cells from the same donor by injection. Blood cells obtained by retro-orbital bleeding at 10 weeks post-engraftment were assessed by flow cytometry for mouse CD45, human CD45, human CD20, human CD3, human CD33, human CD14, and human CD56 (FIG. 1A-F). Live cells were gated using LIVE/DEAD® (ThermFisher Scientific).
BR1126, MDA-MB-231, TM1149, and BL0293 tumor cells were separately implanted subcutaneously into NSG-Quad and NSG-SGM3 mice at 7-12 weeks post-CD34^+-cell engraftment (see Example 1). Tumor sizes were measured with calipers.
NSG-Quad mice xenografted with human BL0293 tumor cells (bladder cancer cells) were grouped when tumors reached 60-100 mm^3, and mice were then administered intravenous pembrolizumab at 10 mg/kg on day 0 followed by 5 mg/kg on days 5, 10, and 15. Tumor sizes were measured by calipers.
FIG. 5 is a graph depicting tumor volumes for NSG-Quad mice that have human CD34^+ hematopoietic stem cell xenografts and BL0293 patient-derived xenografts and receiving either pembrolizumab (Keytruda®) or vehicle. Each data point corresponds to a single mouse at a specific time-point. […]

## pembrolizumab
  tumor growth (tumor volume measured by calipers): reduced tumor growth rates; also recorded: slower tumor growth on average
